According to patent US12473250B2, “Molecular design of new antibiotics and antibiotic adjuvants against MCR strains” (priority 2019, dated 2025):
≈ marks a conversion by molar mass, not a printed value. Where two headings read alike, the source gives them in different places.

Columns and labels:
[1] = system: ENT CLOACAE multi-drug resistant strains; assay: MIC against multi-drug resistant strains (Table 5); format: cell-based, E. cloacae; conditions: Enterobacter cloacae, alone, read-out: MIC
Description: (§1) MIC experiments of the antimicrobial agents were determined by a modified broth microdilution method in accordance with the Clinical and Laboratory Standards Institute (CLSI) guidelines using 96 well culture plates. In brief, serial dilutions of all plates were prepared at different concentrations (μg). The inoculum suspension was prepared by adding isolated colonies from a 18-20 hours on TSA plate into phosphate buffer (0.31 mM, pH 7.2) or in water for injection (BBraun) and adjusting the suspension to a turbidity equivalent to 0.5 McFarland Standard. Each well contained a final bacterial concentration of approximately 5×10^5 colony forming units (CFU)/mL. The plate was covered and incubated at 35° C. for 24 hours. […] For the microdilution plates, turbidity in wells can be measured at OD600 using TECAN infinite M200Pro. MIC was determined as […] concentration that gives a 99 percent inhibition.

[2] = system: KLPN multi-drug resistant strains; assay: MIC against multi-drug resistant strains (Table 5); format: cell-based, Klebsiella pneumonia; conditions: Klebsiella pneumoniae, alone, read-out: MIC
Description: as §1

[3] = system: ACBA multi-drug resistant strains; assay: MIC against multi-drug resistant strains (Table 5); format: cell-based, Acinetobacter baumannii; conditions: Acinetobacter baumannii
Description: as §1

[4] = system: various pathogens; assay: organism not typed; format: cell-based
Description: The MICs of the individual drugs and LC compound in combinations were determined using the broth microdilution technique as recommended by the CLSI whereby the two anti-microbial agents were added in an equal amount. (e.g.: 50 μL of Colistin: 50 μL of LC compounds). Diluted media containing compounds and antibiotics will be serially diluted 2-fold, and LC compounds and antibiotics alone or in combination will be assayed at fixed synergy concentration. In all cases, the lowest concentration at which no visible growth occurred was be recorded to be the MIC value of individual and combined antibacterial agents. The results were obtained after 24 hours of incubation.
Using the combination of LC100 and colistin, the activity of a broad range of strains was further tested (Table 7).

[5] = system: MCR positive E. coli Clinical isolate 6083655967; format: in vivo; conditions: neutropenic mice, i.p. 1 hour after infection, 6 hours after treatment; colistin 10 mg/kg, LC100 50 mg/kg, meropenem 100 mg/kg, combination 50 + 10 mg/kg
Description: FIG. 21 refers to graphs showing the efficacy testing of combination of LC100 and Colistin in neutropenic mouse thigh infection model infected with MCR positive E. coli Clinical isolate 6083655967. Starting inoculum was 1.87×10^6, N=3. “Combination” refers to Colistin 10 mg/kg+LC100 50 mg/kg. Each treatment was done intraperitoneally 1 hour after infection. 6 hours after treatment, mouse thigh tissues were homogenized for viable CFU.
The combination of colistin and antimicrobial peptide (LC100) was tested against E. coli clinical isolate MCR-positive strain 6083655967 in a neutropenic mouse thigh infection model. C57BL/6 mice were rendered neutropenic by cyclophosphamide, dosed at 150 and 100 mg kg-1 delivered on days −4 and −1 prior to infection. Bacteria were suspended in sterile saline and adjusted to a concentration of ˜1.876×10^6 CFU per infection site (100 micro-liters) and injected intramuscularly into the right thigh of five mice per treatment group. At 1 h post infection, mice received colistin ([…], i.p. n=5), LC100 (50 mg kg-1, i.p. n=5), untreated (n=5), or the combination (n=5). Mice were euthanized 6 h after infection; thigh tissue was aseptically collected, homogenized, serially diluted in PBS and plated onto solid TSA supplemented plates. Plates were incubated overnight at 37° C. and colonies were quantified to determine bacterial load.
To evaluate the in vivo efficacy of the combination of LC100 and colistin, a neutropenic mouse thigh infection model was used. 30 mice were classed into 5 groups: control, colistin at 10 mg/kg, LC100 at 50 mg/kg, meropenem at 100 mg/kg and combination of 50 mg/kg of LC100 and 10 mg/kg of colistin. Each treatment was administered intraperitoneally 1 hour after infection. The starting inoculum was 1.87×10^6, and 6 hours after treatment, mouse thigh tissues were homogenized for viable CFU. […] As neutropenic mice were used in the study, the 1.2 log reduction in bacterial burden is due to the combination of LC100 and colistin rather than the immune system of the mouse.

[6] = system: EC strains (CRE strains, colistin sensitive); assay: MIC of polymyxin B or colistin alone (Table 4); format: cell-based, E. coli; parameters: unit: μg/mL
Description: as §1

[7] = system: PAE strains (CRE strains, colistin sensitive); assay: MIC of polymyxin B or colistin alone (Table 4); format: cell-based, P. aeruginosa; parameters: unit: μg/mL
Description: as §1

[8] = ATCC19606, strain ACBA ATCC 19606, alone, read-out: MIC
[9] = strain ACBA 1012, alone, read-out: MIC
[10] = strain ACBA 43357, alone, read-out: MIC
[11] = Escherichia coli, 6083655967 [MCR 1+, E. Coli]
[12] = Escherichia coli, 6093560257 [MCR 1+, E. Coli, NDM-1]
[13] = Escherichia coli, 6123520276 [MCR 1+, E. Coli]
[14] = Escherichia coli, 7023436560 [MCR 1+, E. Coli]
[15] = Escherichia coli, 7023444207 [MCR 1+, E. Coli]
[16] = Escherichia coli, 7023446108 [MCR 1−, E. Coli]
[17] = Escherichia coli, 7033607097 [MCR 1−, E. Coli]
[18] = Escherichia coli, 7103531927 [MCR 1+, E. Coli, KPC+]
[19] = Escherichia coli, 7113636863 [MCR 1+, E. Coli, NDM-1]

| Compound | MIC ([1]; strain ENT CLOACAE 6780) | MIC ([1]; strain ENT CLOACAE 21489) | MIC ([1]; strain ENT CLOACAE 30063) | MIC ([1]; strain ENT CLOACAE 44095) | MIC ([2]; strain KLPN 8852) | MIC ([2]; strain KLPN 15588) | MIC ([2]; strain KLPN 24076) | MIC ([2]; strain KLPN 27025) | MIC [3, 8] | MIC [3, 9] | MIC [3, 10] | MIC ([4]; ACBA 1010 (CI)) | MIC [4, 11] | MIC [4, 12] | MIC [4, 13] | MIC [4, 14] | MIC [4, 15] | MIC [4, 16] | MIC [4, 17] | MIC [4, 18] | also measured |
| --- | --- | --- | --- | --- | --- | --- | --- | --- | --- | --- | --- | --- | --- | --- | --- | --- | --- | --- | --- | --- | --- |
| NCC[C@H](O)C(=O)N[C@@H]1C[C@H](N)[C@@H](O[C@H]2O[C@H](CN)[C@@H](O)[C@H](O)[C@H]2O)[C@H](O)[C@H]1O[C@H]1O[C@H](CO)[C@@H](O)[C@H](N)[C@H]1O [Amikacin] | > 50 µg/mL | 0.78 µg/mL (≈ 1.33 µM) | 25 µg/mL (≈ 42.7 µM) | 25 µg/mL (≈ 42.7 µM) | 12.5 µg/mL (≈ 21.3 µM) | > 50 µg/mL | 3.12 µg/mL (≈ 5.34 µM) | 3.12 µg/mL (≈ 5.34 µM) | 12.5 µg/mL (≈ 21.3 µM) | > 50 µg/mL | 50 µg/mL (≈ 85.4 µM) | – | – | – | – | – | – | – | – | – | MIC ([3]; strain ACBA 1010, alone, read-out: MIC): 1.56 µg/mL (≈ 2.66 µM) |
| C[C@@H](O)[C@H]1C(=O)N2C(C(=O)O)=C(SCCN=CN)C[C@H]12 [Imipenem] | > 50 µg/mL | > 50 µg/mL | > 50 µg/mL | > 50 µg/mL | > 50 µg/mL | > 50 µg/mL | > 50 µg/mL | > 50 µg/mL | 25 µg/mL (≈ 83.5 µM) | > 50 µg/mL | > 50 µg/mL | 25 µg/mL | 0.0975 µg/mL | 12.5 µg/mL | < 0.0975 µg/mL | < 0.0975 µg/mL | 0.0975 µg/mL | 0.0975 µg/mL | 0.195 µg/mL | 6.25 µg/mL | MIC [3]: 12.5 µg/mL (≈ 41.8 µM); MIC ([4]; ACBA ATCC 19606): 25 µg/mL; MIC ([4]; ACBA DR 43357): > 50 µg/mL; MIC [4, 19]: 12.5 µg/mL; MIC ([4]; KLPN CRE 15588): > 50 µg/mL; MIC ([4]; KLPN CRE 27025): > 50 µg/mL; MIC ([4]; PAE DM 4150): 3.12 µg/mL; MIC ([4]; PAE DM 23155): 0.78 µg/mL; MIC ([4]; PAE DM 23257): 0.78 µg/mL; MIC ([4]; PAE DM 23376): 1.56 µg/mL; MIC ([4]; PAE DR 4877): 1.56 µg/mL; MIC ([4]; PAE DR 5790): 6.25 µg/mL; MIC ([4]; PAE DU 14476): > 25 µg/mL |
| C[C@@H](O)[C@H]1C(=O)N2C(C(=O)O)=C(S[C@@H]3CN[C@H](C(=O)N(C)C)C3)[C@H](C)[C@H]12 [meropenem] | – | – | – | – | – | – | – | – | – | – | – | 1.56 µg/mL | < 0.0975 µg/mL | > 50 µg/mL | < 0.0975 µg/mL | < 0.0975 µg/mL | < 0.0975 µg/mL | < 0.0975 µg/mL | < 0.0975 µg/mL | 25 µg/mL | MIC [4, 19]: 50 µg/mL; MIC ([4]; Escherichia coli, E. Coli CRE 11804): > 25 µg/mL; MIC ([4]; Escherichia coli, E. Coli CRE 17232, ⅙ MHB): < 0.195 µg/mL; MIC ([4]; Escherichia coli, E. Coli CRE 17528): 1.56 µg/mL; MIC ([4]; KLPN CRE 7955): > 25 µg/mL; MIC ([4]; KLPN CRE 16260): > 50 µg/mL; MIC ([4]; KLPN CRE 27025): > 50 µg/mL; MIC ([4]; KLPN CRE 55301): 0.39 µg/mL; MIC ([4]; PAE DM 4150): 1.56 µg/mL; MIC ([4]; PAE DM 23155): 0.195 µg/mL; MIC ([4]; PAE DM 23257): 0.78 µg/mL; MIC ([4]; PAE DM 23376): 0.39 µg/mL; MIC ([4]; PAE DR 4877): 1.56 µg/mL; MIC ([4]; PAE DR 5790): 6.25 µg/mL; MIC ([4]; PAE DU 14476): > 25 µg/mL; reduction in bacterial burden [5]: 2 log |
| Polymyxin B | – | – | – | – | – | – | – | – | – | – | – | – | – | – | – | – | – | – | – | – | MIC (antibiotic alone) ([6]; strain EC 17232): 0.195; MIC (antibiotic alone) ([6]; strain EC 17528): 0.78; MIC (antibiotic alone) ([6]; strain EC 19963): 1.56; MIC (antibiotic alone) ([7]; strain PAE 4877): 1.56; MIC (antibiotic alone) ([7]; strain PAE 5790): 1.56; MIC (antibiotic alone) ([7]; strain PAE 14476): 1.56 |
